{"source": "patent US20240400606A1", "about": "“SMALL MOLECULE ACTIVATORS OF THE IMMUNE SYSTEM” (THE BOARD OF TRUSTEES OF THE UNIVERSITY OF ILLINOIS, priority 2021, published 2024)", "key": {"[1]": {"system": "whole cell CS levels in MCF-7", "experiment": "Whole cell cholesterol sulfate quantification, MCF-7", "assay_type": "cell-based, human", "settings": "for whole cell CS levels vs DMSO: MCF-7, 6.25 μM compound, 72 hours", "experimental": "(§1) General Whole Cell Cholesterol Sulfate Quantification. 60×15 mm tissue culture dishes were seeded with MCF-7 at 2×10^6 cells/dish or T47D at 1×10^6 cells per dish, 5 mL total media volume, and allowed to adhere overnight. Compounds of interest were dissolved in DMSO. Cells were treated with 25 μL 1.25 mM compound of interest stock (6.25 μM final compound concentration, 0.5% final DMSO concentration) or DMSO for 72 hours. To harvest, media was aspirated, and cells were washed once with PBS before detaching with trypsin. Trypsin was quenched with media. Cells were centrifuged at 300 xg for 3 minutes and supernatant was discarded. Cells were resuspended in media and counted using a Countess 3 automated cell counter (Thermo Fisher Scientific). 1.5×10^6 cells were collected, washed twice with 1 mL PBS, then pelleted and stored at −80° C. until lysis. Cell pellets were resuspended in 200 μL cold 70:30 methanol:water and placed on ice. Cell suspension was sonicated on ice (30%, 10 s on, 20 s off, 1 min total) and continued to be incubated on ice for 30 minutes. Lysate was clarified by centrifugation at 14,100 xg at 4° C. for 30 minutes. 100 μL of supernatant was transferred to an empty Eppendorf tube and submitted for LC-MS/MS quantification (UIUC Metabolomics Center), along with 5 mM cholesterol sulfate sodium salt standard.\nas §1, with “Time Course Whole Cell” for “General Whole Cell”, “2×10^6 cells/dish per dish,” for “2×10^6 cells/dish or T47D at 1×10^6 cells per dish,”, “DMSO for 0 (harvested immediately), 4, 8, 24, 48, or 72 hours.” for “DMSO for 72 hours.”\nWhole Cell Cholesterol Sulfate Quantification with Compound Removal. 60×15 mm tissue culture dishes were seeded with MCF-7 at 2×10^6 cells/dish, 5 mL total media volume, and allowed to adhere overnight. Compounds of interest were dissolved in DMSO. Cells were treated with 25 μL 1.25 mM compound of interest stock (6.25 μM final compound concentration, 0.5% final DMSO concentration) for 0 hours (harvested immediately) or 24 hours. Media was aspirated and replaced with 5 mL fresh media, then cells were either harvested (24 hour time point) or further incubated. To harvest, media was aspirated, and cells were washed once with PBS before detaching with trypsin. Trypsin was quenched with media. Cells were centrifuged at 300 xg for 3 minutes and supernatant was discarded. Cells were resuspended in media and counted using a Countess 3 automated cell counter (Thermo Fisher Scientific). 1.5×10^6 cells were collected, washed twice with 1 mL PBS, then pelleted and stored at −80° C. until lysis. Cell pellets were resuspended in 200 μL cold 70:30 methanol:water and placed on ice. Cell suspension was sonicated on ice (30%, 10 s on, 20 s off, 1 min total) and continued to be incubated on ice for 30 minutes. Lysate was clarified by centrifugation at 14,100 xg at 4° C. for 30 minutes. […]"}, "MCF-7 cells": {"system": "MCF-7 cells", "experiment": "Alamar blue cellular cytotoxicity, MCF-7", "assay_type": "cell-based", "settings": "MCF-7, 72 hours", "experimental": "Alamar Blue Fluorescence for Cellular Activity (IC50). Cells were seeded per well in a 96-well plate (5000 for MCF-7, 4000 for T47D, 7000 for mouse embryonic fibroblasts) and allowed to adhere before DMSO solutions of compounds were added to each well. Final concentration of DMSO in each well is 1%, final volume: 100 μL. At the end of 72 hours, Alamar Blue solution was added (10 μL of 1 mg resazurin per 10 mL PBS). After 2-4 hours incubation, fluorescence (λexcit.=555 nm, λemission.=585 nm) was measured. The fluorescence of each well was read with a SpectraMax M3 plate reader (Molecular Devices). Percent dead was determined by comparison to a 100% dead control: 100 μM Raptinal treated cells.\nWhole cell cytotoxicity-MCF-7. Cell cytotoxicity was assessed to ensure compound concentrations used the whole cell assays would not kill the cells. Alamar blue cell cytotoxicity assay: 5000 cells were seeded per well in a 96-well plate and allowed to adhere before DMSO solutions of compounds were added to each well. Final concentration of DMSO in each well is 1%, with a final volume of 100 μl. […] After 2 to 4 hours of incubation, fluorescence (λexcitation=555 nm, λemission=585 nm) was measured. Percent dead was determined by comparison to a 100% dead control: 100 μM Raptinal-treated cells (FIG. 6)."}, "SULT2B1b": {"target": "SULT2B1b (Homo sapiens (Human), UniProt O00204)", "sequence (O00204 whole entry)": "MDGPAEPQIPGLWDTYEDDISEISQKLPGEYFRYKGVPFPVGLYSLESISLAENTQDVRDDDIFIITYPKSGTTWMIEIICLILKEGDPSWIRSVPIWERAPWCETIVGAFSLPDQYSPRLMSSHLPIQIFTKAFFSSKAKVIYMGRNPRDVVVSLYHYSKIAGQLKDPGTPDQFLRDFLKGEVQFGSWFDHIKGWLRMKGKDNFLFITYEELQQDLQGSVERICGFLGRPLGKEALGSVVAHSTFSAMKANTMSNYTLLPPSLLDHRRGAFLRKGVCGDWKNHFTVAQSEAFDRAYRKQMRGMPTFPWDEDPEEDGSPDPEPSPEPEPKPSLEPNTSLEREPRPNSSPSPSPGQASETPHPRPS", "experiment": "LC-MS/MS based in vitro assay (DHEA-sulfate formation)", "assay_type": "biochemical", "settings": "100 μM compound, 2 hours; mean±s.e.m., n=3", "experimental": "LC-MS/MS Based In Vitro Assay. Stock solutions of DHEA (5 mM in DMSO) and compound of interest (5 mM in DMSO) were prepared. […] SULT2B1b was diluted to 1.5 μg/μL in protein storage buffer then down to 0.8 μg/μL in 1× activity assay buffer. 30 μL of 0.8 μg/μL SULT2B1b was added to each reaction. Reactions were incubated for 2 hours at 37° C. with shaking at 250 rpm. To quench, 30 μL reaction mix was added to 30 μL ice cold 0.5% HCl in MeCN, then centrifuged at 13,000 xg at room temperature for 3 min. 50 μL supernatant was transferred to an empty Eppendorf tube and submitted for LC-MS/MS quantification (UIUC Metabolomics Center), along with 5 mM DHEA sulfate standard. Controls: Reaction mix made with DHEA and DMSO in place of compound of interest (DHEA control). […] General LC-MS/MS Quantification Method. Both DHEAS and CS samples were analyzed by 6500 QTRAP (Sciex, Redwood City, CA) liquid chromatography-tandem mass spectrometry. […] The flow rate was 0.3 mL/min. […] The source temperature was 400° C. […] Cholesterol-sulfate and DHEA-sulfate were detected by multiple reaction monitoring (MRM) at m/z 465→97.0 and 367.0→97.0 respectively. Software Analyst 1.7.1 ([…]) was used for data acquisition and analysis."}}, "note": "“Also recorded” adds a separate entry of the source.", "data": [{"compound": "C[C@]12CCC(=O)N(Cc3ccc(Br)cc3)C1=CC[C@@H]1[C@@H]2C(=O)C[C@]2(C)C(=O)CC[C@@H]12", "note": "[Compound 3, (4aR,4bS,6aS,9aS,9bS)-1-(4-bromobenzyl)-4a,6a-dimethyl-3,4,4a,6,6a,8,9,9a,9b,10-decahydro-1H-indeno[5,4-f]quinoline-2,5,7(4bH)-trione]", "values": [{"measurement": "whole cell CS levels vs DMSO", "setting": "[1]", "value": "significant decrease"}, {"measurement": "whole cell CS levels vs DMSO", "setting": "[1]; listed as 2-273", "value": "significantly decrease; also recorded: significant (p=0.0003) reduction"}, {"measurement": "CS level rebound after compound removal", "setting": "[1]; MCF-7, 6.25 μM for 24 hours, then compound-free media up to 48 hours", "value": "did not rebound"}, {"measurement": "time of constant treatment to significantly decreased whole cell CS levels", "setting": "[1]; MCF-7, 6.25 μM, time course", "value": "≤ 24", "unit": "h"}, {"measurement": "treatment concentration showing a decrease in CS levels (whole cell dose response)", "setting": "[1]; MCF-7, 72 hour treatment", "value": "≤ 0.097", "unit": "µM"}, {"measurement": "suitable sub-lethal treatment concentration", "setting": "MCF-7 cells", "value": 6.25, "unit": "µM"}, {"measurement": "inhibition at 100 µM", "setting": "SULT2B1b", "value": "72.8 ± 0.1", "unit": "%"}]}, {"compound": "C[C@]12CCC(=O)N(Cc3ccc(Cl)cc3)C1=CC[C@@H]1[C@@H]2C(=O)C[C@]2(C)C(=O)CC[C@@H]12", "note": "[Compound 1, (4aR,4bS,6aS,9aS,9bS)-1-(4-chlorobenzyl)-4a,6a-dimethyl-3,4,4a,6,6a,8,9,9a,9b,10-decahydro-1H-indeno[5,4-f]quinoline-2,5,7(4bH)-trione]", "values": [{"measurement": "whole cell CS levels vs DMSO", "setting": "[1]", "value": "significantly decrease"}, {"measurement": "suitable sub-lethal treatment concentration", "setting": "MCF-7 cells", "value": 6.25, "unit": "µM"}, {"measurement": "inhibition at 100 µM", "setting": "SULT2B1b", "value": "67.8 ± 0.5", "unit": "%"}]}, {"compound": "C[C@]12CC[C@H](O)CC1=CC[C@@H]1[C@@H]2CC[C@]2(C)C(n3cnc4ccccc43)=CC[C@@H]12", "note": "[Compound 2, Galeterone, reference compound]", "values": [{"measurement": "whole cell CS levels vs DMSO", "setting": "[1]", "value": "did decrease CS levels"}, {"measurement": "inhibition at 100 µM", "setting": "SULT2B1b", "value": "57 ± 0.7", "unit": "%"}]}]}
